# Measured values from patent US9982017B2, “Synthetic apelin mimetics for the treatment of heart failure” (priority 2012, dated 2018).
# Where a SMILES comes first, the peptide text is derived from it. Bridges are numbered along the chain shown (N, C = ends). [ ]: non-standard residue; d: D form. ξ: configuration not given here. Bip = N[C@@H](Cc1ccc(-c2ccccc2)cc1)C(=O)O; 3Pal = N[C@@H](Cc1cccnc1)C(=O)O; pGlu = O=C1CC[C@@H](C(=O)O)N1; d(hCys) = N[C@H](CCS)C(=O)O; hCys = N[C@@H](CCS)C(=O)O; Nle = CCCC[C@H](N)C(=O)O; ξPip = O=C(O)C1CCCCN1
# Assay: in vitro
# Conditions: rat, not told, Surrogate activity-based Plasma stability t½
row,Compound,half-life
1,"CCCC[C@@H]1NC(=O)[C@@H]2CCCN2C(=O)[C@H](CC(=O)O)NC(=O)[C@H](CCCCN)NC(=O)[C@H](Cc2c[nH]cn2)NC(=O)[C@@H](NC(=O)[C@H](CC(C)C)NC(=O)[C@H](CCCNC(=N)N)NC(=O)[C@@H]2CCCN2C(=O)[C@H](CCCNC(=N)N)NC(=O)[C@@H]2CCC(=O)N2)CSSC[C@@H](C(=O)N[C@@H](Cc2ccccc2)C(=O)O)NC1=O [Example 39, pE-R-P-R-L-C-H-K-D-P-Nle-C-F-OH] ([pGlu]RPRLCHKDP[Nle]CF-OH; disulfide 6-12)",10.9 h
2,"CCCC[C@@H]1NC(=O)[C@@H]2CCCN2C(=O)CNC(=O)[C@H](CCCCN)NC(=O)[C@H](Cc2c[nH]cn2)NC(=O)[C@@H](NC(=O)[C@H](CC(C)C)NC(=O)[C@H](CCC(=O)O)NC(=O)[C@@H]2CCCN2C(=O)[C@H](CCCNC(=N)N)NC(=O)[C@@H]2CCC(=O)N2)CSSC[C@@H](C(=O)N[C@@H](Cc2ccccc2)C(=O)O)NC1=O [Example 40, pE-R-P-E-L-C-H-K-G-P-Nle-C-F-OH] ([pGlu]RPELCHKGP[Nle]CF-OH; disulfide 6-12)",> 16.7 h
3,"CCCC[C@@H]1NC(=O)[C@@H]2CCCN2C(=O)CNC(=O)[C@H](CCCCN)NC(=O)[C@H](Cc2c[nH]cn2)NC(=O)[C@@H](NC(=O)[C@H](Cc2ccc(-c3ccccc3)cc2)NC(=O)[C@H](CCCNC(=N)N)NC(=O)[C@@H]2CCCN2C(=O)[C@H](CCCNC(=N)N)NC(=O)[C@@H]2CCC(=O)N2)CSSC[C@@H](C(=O)N[C@@H](Cc2ccccc2)C(=O)O)NC1=O [Example 41, pE-R-P-R-(4-PhF)-C-H-K-G-P-Nle-C-F-OH] ([pGlu]RPR[Bip]CHKGP[Nle]CF-OH; disulfide 6-12)",10.5 h
4,"CCCC[C@@H]1NC(=O)[C@@H]2CCCN2C(=O)CNC(=O)[C@H](CCCCN)NC(=O)[C@H](CCC(=O)O)NC(=O)[C@@H](NC(=O)[C@H](CC(C)C)NC(=O)[C@H](CCCNC(=N)N)NC(=O)[C@@H]2CCCN2C(=O)[C@H](CCCNC(=N)N)NC(=O)[C@@H]2CCC(=O)N2)CSSC[C@@H](C(=O)N[C@@H](Cc2ccccc2)C(=O)O)NC1=O [Example 43, pE-R-P-R-L-C-E-K-G-P-Nle-C-F-OH] ([pGlu]RPRLCEKGP[Nle]CF-OH; disulfide 6-12)",> 16.7 h
5,"CCCC[C@@H]1NC(=O)[C@@H]2CCCN2C(=O)[C@H](CC(C)C)NC(=O)[C@H](CCCCN)NC(=O)[C@H](Cc2c[nH]cn2)NC(=O)[C@@H](NC(=O)[C@H](CC(C)C)NC(=O)[C@H](CCCNC(=N)N)NC(=O)[C@@H]2CCCN2C(=O)[C@H](CCCNC(=N)N)NC(=O)[C@@H]2CCC(=O)N2)CSSC[C@@H](C(=O)N[C@@H](Cc2ccccc2)C(=O)O)NC1=O [Example 44, pE-R-P-R-L-C-H-K-L-P-Nle-C-F-OH] ([pGlu]RPRLCHKLP[Nle]CF-OH; disulfide 6-12)",14.3 h
6,"CCCC[C@@H]1NC(=O)[C@@H]2CCCN2C(=O)[C@H](CCCNC(=N)N)NC(=O)[C@H](CCCCN)NC(=O)[C@H](Cc2c[nH]cn2)NC(=O)[C@@H](NC(=O)[C@H](CC(C)C)NC(=O)[C@H](CCCNC(=N)N)NC(=O)[C@@H]2CCCN2C(=O)[C@H](CCCNC(=N)N)NC(=O)[C@@H]2CCC(=O)N2)CSSC[C@@H](C(=O)N[C@@H](Cc2ccccc2)C(=O)O)NC1=O [Example 45, pE-R-P-R-L-C-H-K-R-P-Nle-C-F-OH] ([pGlu]RPRLCHKRP[Nle]CF-OH; disulfide 6-12)",2.79 h
7,"CC(C)C[C@H](NC(=O)[C@H](CCCNC(=N)N)NC(=O)[C@@H]1CCCN1C(=O)[C@H](CCCNC(=N)N)NC(=O)[C@@H]1CCC(=O)N1)C(=O)N[C@H]1CSSC[C@@H](C(=O)N[C@@H](Cc2ccccc2)C(=O)O)NC(=O)[C@H](Cc2cccnc2)NC(=O)[C@@H]2CCCN2C(=O)CNC(=O)[C@H](CCCCN)NC(=O)[C@H](Cc2c[nH]cn2)NC1=O [Example 47, pE-R-P-R-L-C-H-K-G-P-(3-PyA)-C-F-OH] ([pGlu]RPRLCHKGP[3Pal]CF-OH; disulfide 6-12)",6.98 h
8,"CCCC[C@@H]1NC(=O)[C@@H]2CCCN2C(=O)CNC(=O)[C@H](CCCCN)NC(=O)[C@H](Cc2c[nH]cn2)NC(=O)[C@@H](NC(=O)[C@H](CC(C)C)NC(=O)[C@H](CCCNC(=N)N)NC(=O)[C@@H]2CCCN2C(=O)[C@H](CCCNC(=N)N)NC(=O)[C@@H]2CCC(=O)N2)CCSSCC[C@@H](C(=O)N[C@@H](Cc2ccccc2)C(=O)O)NC1=O [Example 52, pE-R-P-R-L-hC-H-K-G-P-Nle-hC-F-OH] ([pGlu]RPRL[hCys]HKGP[Nle][hCys]F-OH; disulfide 6-12)",13 h

# Other lines, results leading:
row,half-life,Compound
1,> 16.7 h,"CCCC[C@@H]1NC(=O)[C@@H]2CCCN2C(=O)CNC(=O)[C@H](CCC(=O)O)NC(=O)[C@H](Cc2c[nH]cn2)NC(=O)[C@@H](NC(=O)[C@H](CC(C)C)NC(=O)[C@H](CCCNC(=N)N)NC(=O)[C@@H]2CCCN2C(=O)[C@H](CCCNC(=N)N)NC(=O)[C@@H]2CCC(=O)N2)CSSC[C@@H](C(=O)N[C@@H](Cc2ccccc2)C(=O)O)NC1=O [Example 38, pE-R-P-R-L-C-H-E-G-P-Nle-C-F-OH] ([pGlu]RPRLCHEGP[Nle]CF-OH; disulfide 6-12)"
2,> 16.7 h,"CCCC[C@@H]1NC(=O)[C@@H]2CCCN2C(=O)CNC(=O)[C@H](CCCCN)NC(=O)[C@H](Cc2c[nH]cn2)NC(=O)[C@@H](NC(=O)[C@H](CC(=O)O)NC(=O)[C@H](CCCNC(=N)N)NC(=O)[C@@H]2CCCN2C(=O)[C@H](CCCNC(=N)N)NC(=O)[C@@H]2CCC(=O)N2)CSSC[C@@H](C(=O)N[C@@H](Cc2ccccc2)C(=O)O)NC1=O [Example 42, pE-R-P-R-D-C-H-K-G-P-Nle-C-F-OH] ([pGlu]RPRDCHKGP[Nle]CF-OH; disulfide 6-12)"
3,8.37 h,"CCCC[C@@H]1NC(=O)C2CCCCN2C(=O)CNC(=O)[C@H](CCCCN)NC(=O)[C@H](Cc2c[nH]cn2)NC(=O)[C@@H](NC(=O)[C@H](CC(C)C)NC(=O)[C@H](CCCNC(=N)N)NC(=O)[C@@H]2CCCN2C(=O)[C@H](CCCNC(=N)N)NC(=O)[C@@H]2CCC(=O)N2)CSSC[C@@H](C(=O)N[C@@H](Cc2ccccc2)C(=O)O)NC1=O (stereo partly drawn) [Example 46, pE-R-P-R-L-C-H-K-G-(Pipecolic acid)-Nle-C-F-OH] ([pGlu]RPRLCHKG[ξPip][Nle]CF-OH; disulfide 6-12)"
4,9.11 h,"CCCC[C@@H]1NC(=O)[C@@H]2CCCN2C(=O)CNC(=O)[C@H](CCCCN)NC(=O)[C@H](Cc2c[nH]cn2)NC(=O)[C@@H](NC(=O)[C@H](CC(C)C)NC(=O)[C@H](CCCNC(=N)N)NC(=O)[C@@H]2CCCN2C(=O)[C@H](CCCNC(=N)N)NC(=O)[C@@H]2CCC(=O)N2)CSSC[C@@H](C(=O)N[C@@H](Cc2c[nH]cn2)C(=O)O)NC1=O [Example 48, pE-R-P-R-L-C-H-K-G-P-Nle-C-H-OH] ([pGlu]RPRLCHKGP[Nle]CH-OH; disulfide 6-12)"
5,> 16.7 h,"CCCC[C@@H]1NC(=O)[C@@H]2CCCN2C(=O)CNC(=O)[C@H](CCCCN)NC(=O)[C@H](Cc2c[nH]cn2)NC(=O)[C@@H](NC(=O)[C@H](CC(C)C)NC(=O)[C@H](CCCNC(=N)N)NC(=O)[C@@H]2CCCN2C(=O)[C@H](CCCNC(=N)N)NC(=O)[C@@H]2CCC(=O)N2)CSSC[C@@H](C(=O)N[C@@H](CCC(=O)O)C(=O)O)NC1=O [Example 49, pE-R-P-R-L-C-H-K-G-P-Nle-C-E-OH] ([pGlu]RPRLCHKGP[Nle]CE-OH; disulfide 6-12)"
6,> 16.7 h,"CCCC[C@@H]1NC(=O)[C@@H]2CCCN2C(=O)CNC(=O)[C@H](CCCCN)NC(=O)[C@H](Cc2c[nH]cn2)NC(=O)[C@@H](NC(=O)[C@H](CC(C)C)NC(=O)[C@H](CCCNC(=N)N)NC(=O)[C@@H]2CCCN2C(=O)[C@H](CCCNC(=N)N)NC(=O)[C@@H]2CCC(=O)N2)CSSC[C@@H](C(=O)O)NC1=O [Example 50, pE-R-P-R-L-C-H-K-G-P-Nle-C-OH] ([pGlu]RPRLCHKGP[Nle]C-OH; disulfide 6-12)"
7,10.9 h,"CCCC[C@@H]1NC(=O)[C@@H]2CCCN2C(=O)CNC(=O)[C@H](CCCCN)NC(=O)[C@H](Cc2c[nH]cn2)NC(=O)[C@@H](NC(=O)[C@H](CC(C)C)NC(=O)[C@H](CCCNC(=N)N)NC(=O)[C@@H]2CCCN2C(=O)[C@H](CCCNC(=N)N)NC(=O)[C@@H]2CCC(=O)N2)CSSCC[C@@H](C(=O)N[C@@H](Cc2ccccc2)C(=O)O)NC1=O [Example 51, pE-R-P-R-L-C-H-K-G-P-Nle-hC-F-OH] ([pGlu]RPRLCHKGP[Nle][hCys]F-OH; disulfide 6-12)"
8,> 16.7 h,"CCCC[C@@H]1NC(=O)[C@@H]2CCCN2C(=O)CNC(=O)[C@H](CCCCN)NC(=O)[C@H](Cc2c[nH]cn2)NC(=O)[C@H](NC(=O)[C@H](CC(C)C)NC(=O)[C@H](CCCNC(=N)N)NC(=O)[C@@H]2CCCN2C(=O)[C@H](CCCNC(=N)N)NC(=O)[C@@H]2CCC(=O)N2)CSSC[C@@H](C(=O)N[C@@H](Cc2ccccc2)C(=O)O)NC1=O [Example 53, pE-R-P-R-L-c-H-K-G-P-Nle-C-F-OH] ([pGlu]RPRL[dC]HKGP[Nle]CF-OH; disulfide 6-12)"
9,> 16.7 h,"CCCC[C@@H]1NC(=O)[C@@H]2CCCN2C(=O)CNC(=O)[C@H](CCCCN)NC(=O)[C@H](Cc2c[nH]cn2)NC(=O)[C@@H](NC(=O)[C@H](CC(C)C)NC(=O)[C@H](CCCNC(=N)N)NC(=O)[C@@H]2CCCN2C(=O)[C@H](CCCNC(=N)N)NC(=O)[C@@H]2CCC(=O)N2)CSSCC[C@H](C(=O)N[C@@H](Cc2ccccc2)C(=O)O)NC1=O [Example 54, pE-R-P-R-L-C-H-K-G-P-Nle-(D-hC)-F-OH] ([pGlu]RPRLCHKGP[Nle][d(hCys)]F-OH; disulfide 6-12)"
10,> 16.7 h,"CCCC[C@@H]1NC(=O)[C@@H]2CCCN2C(=O)CNC(=O)[C@H](CCCCN)NC(=O)[C@H](Cc2c[nH]cn2)NC(=O)[C@H](NC(=O)[C@H](CC(C)C)NC(=O)[C@H](CCCNC(=N)N)NC(=O)[C@@H]2CCCN2C(=O)[C@H](CCCNC(=N)N)NC(=O)[C@@H]2CCC(=O)N2)CCSSCC[C@H](C(=O)N[C@@H](Cc2ccccc2)C(=O)O)NC1=O [Example 55, pE-R-P-R-L-(D-hC)-H-K-G-P-Nle-(D-hC)-F-OH] ([pGlu]RPRL[d(hCys)]HKGP[Nle][d(hCys)]F-OH; disulfide 6-12)"
11,> 16.7 h,"CCCC[C@@H]1NC(=O)[C@@H]2CCCN2C(=O)CNC(=O)[C@H](CCCCN)NC(=O)[C@H](Cc2c[nH]cn2)NC(=O)[C@@H](NC(=O)[C@H](CC(C)C)NC(=O)[C@H](CCCNC(=N)N)NC(=O)[C@@H]2CCCN2C(=O)[C@H](CCCNC(=N)N)NC(=O)[C@@H]2CCC(=O)N2)CSSC[C@H](C(=O)N[C@@H](Cc2ccccc2)C(=O)O)NC1=O [Example 56, pE-R-P-R-L-C-H-K-G-P-Nle-c-F-OH] ([pGlu]RPRLCHKGP[Nle][dC]F-OH; disulfide 6-12)"
